Measurements as given in PubChem BioAssay (NCI).
Several values for one entry are separate records, joined by “and”; a condition that tells them apart may be missing. Equal values may be shown once.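 96-well plates; 48 h exposure; 5 concentrations. Endpoints by linear interpolation between flanking doses. Not reached: highest tested concentration assigned. GI50 marks 50% less growth. TGI denotes the concentration required for complete inhibition of growth.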

Tests used:
Assay in all cases: DTP human tumour cell line panel, 48 h
CAKI-1 renal = test system: CAKI-1 renal
HL-60(TB) leukemia = test system: HL-60(TB) leukemia
IGROV1 ovarian = test system: IGROV1 ovarian
MALME-3M melanoma = test system: MALME-3M melanoma
OVCAR-5 ovarian = test system: OVCAR-5 ovarian
OVCAR-8 ovarian = test system: OVCAR-8 ovarian
RXF 393 renal = test system: RXF 393 renal
SK-MEL-5 melanoma = test system: SK-MEL-5 melanoma
SW-620 colon = test system: SW-620 colon
U251 CNS = test system: U251 CNS

Cc1nnc2n1N=C(c1ccccc1)C(c1ccccc1)S2 (configuration not stated)
TGI (CAKI-1 renal): > 100 µM | TGI (HL-60(TB) leukemia): 64.5 µM | TGI (IGROV1 ovarian): > 100 µM | TGI (MALME-3M melanoma): > 100 µM | TGI (OVCAR-5 ovarian): > 100 µM | TGI (OVCAR-8 ovarian): > 100 µM | TGI (RXF 393 renal): 85.7 µM | TGI (SK-MEL-5 melanoma): > 100 µM | TGI (SW-620 colon): 26.8 µM | TGI (U251 CNS): 72 µM

c1ccc2c(c1)[nH]c1c2nc2ccccn21
TGI (CAKI-1 renal): > 100 µM | GI50 (HL-60(TB) leukemia): 42.8 µM and > 100 µM | TGI (HL-60(TB) leukemia): > 100 µM | TGI (IGROV1 ovarian): > 100 µM | GI50 (MALME-3M melanoma): 27.8 µM and > 100 µM | TGI (MALME-3M melanoma): > 100 µM | TGI (OVCAR-5 ovarian): > 100 µM | TGI (OVCAR-8 ovarian): > 100 µM | TGI (RXF 393 renal): > 100 µM | TGI (SK-MEL-5 melanoma): > 100 µM | TGI (SW-620 colon): > 100 µM | TGI (U251 CNS): > 100 µM

Cn1c(I)c(C#C[Si](C)(C)C)c(=O)n(C(=O)c2ccccc2)c1=O
GI50 (CAKI-1 renal): 2.56 µM | TGI (CAKI-1 renal): 6.85 µM | GI50 (HL-60(TB) leukemia): 1.52 µM | TGI (HL-60(TB) leukemia): > 51.5 µM | GI50 (IGROV1 ovarian): 1.74 µM | TGI (IGROV1 ovarian): 3.45 µM | GI50 (MALME-3M melanoma): 2.72 µM | TGI (MALME-3M melanoma): 6.63 µM | GI50 (OVCAR-5 ovarian): 14.3 µM | TGI (OVCAR-5 ovarian): 28.5 µM | GI50 (OVCAR-8 ovarian): 12.4 µM | TGI (OVCAR-8 ovarian): 26.1 µM | GI50 (RXF 393 renal): 1.64 µM | TGI (RXF 393 renal): 3.14 µM | GI50 (SK-MEL-5 melanoma): 2.76 µM | TGI (SK-MEL-5 melanoma): 9.15 µM | GI50 (SW-620 colon): 2.01 µM | TGI (SW-620 colon): 4.27 µM | GI50 (U251 CNS): 12.5 µM | TGI (U251 CNS): 25 µM

Cn1c(=O)oc2cc(C3CCC(=O)N3Cc3csc(-c4ccccc4)n3)ccc21 (configuration not stated)
TGI (CAKI-1 renal): > 100 µM | TGI (HL-60(TB) leukemia): > 100 µM | TGI (IGROV1 ovarian): > 100 µM | TGI (MALME-3M melanoma): > 100 µM | TGI (OVCAR-5 ovarian): > 100 µM | TGI (OVCAR-8 ovarian): > 100 µM | TGI (RXF 393 renal): > 100 µM | TGI (SK-MEL-5 melanoma): > 100 µM | TGI (SW-620 colon): > 100 µM | TGI (U251 CNS): > 100 µM

COc1cccc2c1C(=O)c1c(O)c3c(c(O)c1C2=O)C[C@@](O)(C(C)=O)CC3OC1CC(OC2CC(N)C(O)C(C)O2)C(O)C(C)O1 (some centres not stated)
TGI (CAKI-1 renal): > 100 µM | TGI (HL-60(TB) leukemia): 34.8 µM | TGI (IGROV1 ovarian): > 100 µM | TGI (MALME-3M melanoma): > 100 µM | TGI (OVCAR-5 ovarian): > 100 µM | TGI (OVCAR-8 ovarian): > 100 µM | TGI (RXF 393 renal): > 100 µM | TGI (SK-MEL-5 melanoma): > 100 µM | TGI (SW-620 colon): > 100 µM | TGI (U251 CNS): > 87.6 µM

COc1cc(O)ccc1C(=S)SC
TGI (CAKI-1 renal): > 100 µM | TGI (HL-60(TB) leukemia): > 100 µM | TGI (IGROV1 ovarian): > 100 µM | TGI (MALME-3M melanoma): > 100 µM | TGI (OVCAR-5 ovarian): > 100 µM | TGI (OVCAR-8 ovarian): > 100 µM | TGI (RXF 393 renal): > 100 µM | TGI (SK-MEL-5 melanoma): > 100 µM | TGI (SW-620 colon): > 100 µM | TGI (U251 CNS): > 100 µM
